Results reported in patent US9636299B2, “Method for treating diabetic retinopathy” (XAVIER UNIVERSITY OF LOUISIANA, priority 2012, dated 2017).
Residues, ends and D or L forms follow the SMILES beside them.

Experiments:
[1] = test system: endothelial nitric oxide synthase (eNOS); experiment: eNOS expression in high glucose-treated hRMECs (Western blot); format: cell-based, human; settings: 100 μM apoEdp, 30 minute treatment
From the text: (§1) Cell Culture. Primary cultures of human retina microvascular endothelial cells (hRMECs) were purchased from the Applied Cell Biology Research Institute and grown on attachment factor-coated plates in cell systems complete (CSC) medium (Cell Systems, Kirkland, Wash.) supplemented with 20% fetal bovine serum, culture boost (animal derived growth factors) and bac-off (antibiotics). The primary hRMECs were used in their passages 4 to 6. The 18-a.a. apoE mimetic peptide apoEdp (SEQ ID NO:3, Ac-LRKLRKRLLLRKLRKRLL-amide), derived from the human apolipoprotein E receptor-binding region (see SED ID NO:1) between residues 141 and 149, was synthesized (Genemed, Arlington, Tex.) with a purity of greater than 95%. The apoEdp peptide was dissolved in phosphate-buffered saline (“PBS”) at a concentration appropriate for further experimental use. […]
(§2) Western Blotting. […] The total protein concentration was determined using a BCA protein assay kit (Pierce, Rockford, Ill.). […] To ensure the equal loading of protein in each lane, each membrane was stripped and re-probed with an antibody against β-actin, and the chemiluminescence was detected as described previously. After scanning the blots with a flatbed scanner, band intensities were analyzed using ImageJ (NIH) and the relative intensity values were normalized to control values. […]

MMP9 = MMP9 expression in high glucose-treated hRMECs (Western blot); format: cell-based, human; settings: 30 mM glucose 72 hours, 50 or 100 μM apoEdp
From the text: as §1, §2

heparan sulfate (HS) = experiment: Heparan sulfate shedding in high glucose-treated hRMECs (Western blot); format: cell-based, human; settings: 30 mM glucose 72 hours, 50 or 100 μM apoEdp
From the text: as §1, §2

LRP-1 [2] = experiment: LRP-1 expression in high sugar induced hRMECs (Western blot); format: cell-based, human; settings: high sugar induced serum starved hRMECs, 1% apoEdp, 24 hours
Procedure: Using an anti-LRP-1 antibody (human LRP-1; 1:1000, Santa Cruz Biotechnology, CA) and Western blot analysis, selective inhibition of LRP-1 by apoEdp treatment (24 hours) in serum starved hRMECs cells was shown.

VEGF = experiment: Streptozotocin-induced diabetic mice, retinal VEGF protein by Western blot; format: in vivo, mouse; settings: 14 days
Procedure: (§3) Streptozotocin (STZ) induced diabetes. Twelve week old C57Bl/6 mice were used for this study. Mice were induced to have diabetes by intraperitoneal injection of 170 μg/g of streptozotocin (Sigma Aldrich, St. Louis, Mo.). Controls were injected with a vehicle (0.01M sodium citrate buffer). On the third day after STZ treatment, mice tail veins were bled to test the hyperglycemic status using blood sugar detection kit (Lifescan; Johnson & Johnson, Milpitas, Calif.). Mice with blood sugar levels of >300 mg/dL on the third day after STZ treatment were considered diabetic. Eye drop treatment containing 1% apoEdp or vehicle PBS was continued 4 times a day for 14 consecutive days. Intra-peritoneal (i/p) injection containing 40 mg/kg of apoEdp or vehicle control PBS was administered once daily for 14 consecutive days. On the 15th day post-treatment, mice were euthanized, their eyes enucleated, and the retinas dissected out to use for mRNA or Western blot analysis.
Upregulation of VEGF expression is reported as one of the reasons for the loss of tight junction proteins in diabetic mice (20).
(§4) Increased vascular permeability in diabetic retinopathy (DR) is reported to result in a concomitant increase of VEGF. The VEGF pathway is known to play a role in breakdown of the BRB through a mechanism involving the down regulation of tight junction proteins in the retinal microvasculature (20).

LRP-1 [3] = experiment: Streptozotocin-induced diabetic mice, retinal LRP-1 protein; format: in vivo, mouse
Procedure: as §3

heparanase = experiment: Streptozotocin-induced diabetic mice, heparanase expression; format: in vivo, mouse; settings: either 14-day eye drop application or systemic i/p injection
Procedure: as §3, §4

HS = experiment: Streptozotocin-induced diabetic mice, loss of HS; format: in vivo, mouse; settings: either 14-day eye drop application or systemic i/p injection
Procedure: as §3, §4

SMILES: CC(=O)N[C@@H](CC(C)C)C(=O)N[C@@H](CCCNC(=N)N)C(=O)N[C@@H](CCCCN)C(=O)N[C@@H](CC(C)C)C(=O)N[C@@H](CCCNC(=N)N)C(=O)N[C@@H](CCCCN)C(=O)N[C@@H](CCCNC(=N)N)C(=O)N[C@@H](CC(C)C)C(=O)N[C@@H](CC(C)C)C(=O)N[C@@H](CC(C)C)C(=O)N[C@@H](CCCNC(=N)N)C(=O)N[C@@H](CCCCN)C(=O)N[C@@H](CC(C)C)C(=O)N[C@@H](CCCNC(=N)N)C(=O)N[C@@H](CCCCN)C(=O)N[C@@H](CCCNC(=N)N)C(=O)N[C@@H](CC(C)C)C(=O)N[C@@H](CC(C)C)C(N)=O [apoEdp, Ac-LRKLRKRLLLRKLRKRLL-amide] (Ac-LRKLRKRLLLRKLRKRLL-NH2)
- Elevated expression of eNOS induced by 30 mM D-glucose [1]: prevented
- High glucose-induced expression of MMP9 (MMP9): suppressed the expression
- High glucose-induced shedding of HS (heparan sulfate (HS)): reduced the shedding
- Upregulation of LRP-1 (LRP-1 [2]): inhibiting the upregulation
- VEGF expression of retina (VEGF; eye drop treatment, vs untreated diabetic): not significantly different from untreated diabetic mice
- VEGF expression of retina (VEGF; i/p injection of apoEdp, vs diabetic untreated): significantly reduced VEGF expression
- Retinal LRP-1 protein levels (LRP-1 [3]; 1% apoEdp via eye drops): significant reduction
- Retinal LRP-1 protein levels (LRP-1 [3]; 1% apoEdp via intraperitoneal (i/p) injection): significant reduction
- Increased expression of heparanase (heparanase): reversed increased expression of heparanase
- Loss of HS (HS): reversed
